# Experimental data reported in ChEMBL document CHEMBL1130944, “Exploring structure-activity relationships around the phosphomannose isomerase inhibitor AF14049 via combinatorial synthesis” (Bioorg Med Chem Lett, 1998).
# Molecular target: T1, Mannose-6-phosphate isomerase (Homo sapiens, UniProt P34949)
# T1 sequence (P34949 whole entry): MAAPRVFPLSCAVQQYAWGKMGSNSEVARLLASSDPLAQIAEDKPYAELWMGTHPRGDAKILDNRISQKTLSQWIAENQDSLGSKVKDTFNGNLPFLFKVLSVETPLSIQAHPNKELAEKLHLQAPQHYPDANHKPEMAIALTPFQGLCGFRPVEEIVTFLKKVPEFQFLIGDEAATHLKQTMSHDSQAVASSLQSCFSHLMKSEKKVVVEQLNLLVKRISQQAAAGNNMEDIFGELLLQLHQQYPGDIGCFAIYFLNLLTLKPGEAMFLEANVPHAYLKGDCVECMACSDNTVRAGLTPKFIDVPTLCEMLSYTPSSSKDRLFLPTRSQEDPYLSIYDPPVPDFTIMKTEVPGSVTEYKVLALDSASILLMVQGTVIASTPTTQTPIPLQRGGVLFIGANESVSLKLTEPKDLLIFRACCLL
# Assay: Compound was tested for inhibition of human phosphomannose isomerase (PMI); call rule not given here
row,IC50 [µM],SMILES
1,100,O=CC(O)C(O)COP(=O)(O)O (centres undefined)

# System: Candida albicans
# Assay: Compound was evaluated for the minimum inhibitory concentration against Candida albicans
# Assay type: functional
row,MIC [µM],SMILES
1,100,O=C(CCCSc1ccc(Cl)c(Cl)c1)NC1(C(=O)NO)Cc2ccccc2C1

# Molecular target: not listed separately
# Assay: Compound was tested for inhibition of porcine phosphomannose isomerase (PMI)
# Parameters: species or system Sus scrofa
row,IC50 [µM],SMILES
1,100,O=CC(O)C(O)COP(=O)(O)O (centres undefined)

# Molecular target: Mannose-6-phosphate isomerase (Saccharomyces cerevisiae) (UniProt P29952)
# Sequence (P29952 whole entry, looked up): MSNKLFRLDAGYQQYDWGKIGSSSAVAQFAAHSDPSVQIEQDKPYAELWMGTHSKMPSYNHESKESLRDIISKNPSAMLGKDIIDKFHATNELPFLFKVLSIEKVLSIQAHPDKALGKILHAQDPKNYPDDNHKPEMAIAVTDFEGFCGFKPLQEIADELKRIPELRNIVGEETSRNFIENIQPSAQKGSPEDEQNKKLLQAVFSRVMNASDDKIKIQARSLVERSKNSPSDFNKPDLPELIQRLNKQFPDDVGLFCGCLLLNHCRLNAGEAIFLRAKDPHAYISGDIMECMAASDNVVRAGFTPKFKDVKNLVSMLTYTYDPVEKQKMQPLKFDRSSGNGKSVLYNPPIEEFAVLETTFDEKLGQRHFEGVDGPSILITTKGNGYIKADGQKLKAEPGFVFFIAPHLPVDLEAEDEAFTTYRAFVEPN
# Assay: Compound was evaluated for the inhibition of yeast phosphomannose isomerase (PMI) at a concentration of 300 uM; inactive
row,IC50,SMILES
1,Not Active,O=C(CCCOc1ccc(Cl)cc1Cl)NC1(C(=O)NO)CCc2ccccc21 (centres undefined)

# System: Saccharomyces cerevisiae
# Assay: Compound was evaluated for the minimum inhibitory concentration against Invsc 1, a wild type strain of Saccharomyces cerevisiae
# Assay type: functional
row,MIC [µM],SMILES
1,100,O=C(CCCSc1ccc(Cl)c(Cl)c1)NC1(C(=O)NO)Cc2ccccc2C1

# System: Saccharomyces cerevisiae
# Assay: Compound was evaluated for the minimum inhibitory concentration against Saccharomyces cerevisiae
# Assay type: functional
row,MIC [µM],SMILES
1,80,O=C(CCCSc1ccc(Cl)c(Cl)c1)NC1(C(=O)NO)Cc2ccccc2C1

# Molecular target: T2, Mannose-6-phosphate isomerase (Candida albicans (strain SC5314 / ATCC MYA-2876) (Yeast), UniProt P34948)
# T2 sequence (P34948 whole entry): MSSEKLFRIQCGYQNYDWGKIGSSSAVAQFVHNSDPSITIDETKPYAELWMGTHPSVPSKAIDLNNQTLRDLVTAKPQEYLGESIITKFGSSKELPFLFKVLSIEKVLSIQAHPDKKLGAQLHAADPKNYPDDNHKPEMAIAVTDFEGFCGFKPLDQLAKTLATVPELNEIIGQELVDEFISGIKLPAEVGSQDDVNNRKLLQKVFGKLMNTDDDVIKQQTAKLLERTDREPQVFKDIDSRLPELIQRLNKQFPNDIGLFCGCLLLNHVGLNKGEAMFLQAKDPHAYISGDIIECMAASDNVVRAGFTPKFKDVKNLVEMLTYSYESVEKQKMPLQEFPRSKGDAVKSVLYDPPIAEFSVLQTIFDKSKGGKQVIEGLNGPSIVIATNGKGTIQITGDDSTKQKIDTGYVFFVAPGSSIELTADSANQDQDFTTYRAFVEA
# Assay: Inhibition of phosphomannose isomerase enzyme of Candida albicans (CaPMI)
row,IC50 [µM],SMILES
1,93,NC(=O)C1(NC(=O)CCCOc2ccc(Cl)cc2Cl)CCc2ccccc2C1 (centres undefined)
2,50,NC(=O)C1(NC(=O)CCCNc2ccc(Cl)cc2Cl)Cc2ccccc2C1
3,140,O=C(CCCOc1ccc(Cl)cc1Cl)NC1(CO)Cc2ccccc2C1
4,> 200,NC(=O)C1Cc2ccccc2CN1C(=O)CCCOc1ccc(Cl)cc1Cl (centres undefined)
5,50,Cc1cc(OCCCC(=O)NC2(C(N)=O)Cc3ccccc3C2)ccc1Cl
6,> 500,O=C(CCCOc1ccc(Cl)cc1Cl)NC1(C(=O)O)Cc2ccccc2C1
7,34,COC(=O)C1(NC(=O)CCCOc2ccc(Cl)cc2Cl)Cc2ccccc2C1
8,> 200,COC(=O)C1(NC(=O)CCCOc2ccc(Cl)c(Cl)c2)Cc2cc3ccccc3cc2C1
9,14,NC(=O)C1(NC(=O)CCCSc2ccc(Cl)cc2Cl)Cc2ccccc2C1
10,> 200,COC(=O)C1(NC(=O)CCCOc2ccc(Cl)c(Cl)c2)Cc2ccc3ccccc3c2C1 (centres undefined)
11,21,NC(=O)C1(NC(=O)CCCNc2ccc(Cl)c(Cl)c2)Cc2ccccc2C1
12,30,NC(=O)C1(NC(=O)CCCOc2cc(Cl)c(Cl)cc2Cl)Cc2ccccc2C1
13,6,NC(=O)C1(NC(=O)CCCSc2ccc(Cl)c(Cl)c2)Cc2ccccc2C1
14,> 200,NC(=O)C1(NC(=O)CCCOc2ccc(Cl)cc2Cl)CCCC1
15,15,NC(=O)C1(NC(=O)CCCOc2ccc(Cl)c(Cl)c2)Cc2ccccc2C1
16,39,O=C(CCCOc1ccc(Cl)cc1Cl)NC1(C(=O)NO)Cc2ccccc2C1
17,40,NNC(=O)C1(NC(=O)CCCOc2ccc(Cl)cc2Cl)Cc2ccccc2C1
18,> 200,COC(=O)c1ccc2c(c1)CC(NC(=O)CCCOc1ccc(Cl)c(Cl)c1)(C(=O)OC)C2 (centres undefined)
19,34,CNC(=O)C1(NC(=O)CCCOc2ccc(Cl)cc2Cl)Cc2ccccc2C1
20,> 200,O=C(CCCOc1ccc(Cl)cc1Cl)NC1Cc2ccccc2C1
21,> 200,CC(Cc1ccccc1)(NC(=O)CCCOc1ccc(Cl)cc1Cl)C(N)=O (centres undefined)
22,> 200,NC(=O)C1(NC(=O)CCCOc2ccc(Cl)cc2Cl)CCc2ccccc21 (centres undefined)

# Molecular target: T1, Mannose-6-phosphate isomerase
# Assay: Compound was evaluated for the inhibition constant against human phosphomannose isomerase (huPMI)
row,Ki [µM],SMILES
1,26,O=C(CCCSc1ccc(Cl)c(Cl)c1)NC1(C(=O)NO)Cc2ccccc2C1
